Laboratory results taken from patent US8044069B2, “Compounds as calcium channel blockers” (Abbott Laboratories, priority 2008, dated 2011).

These molecules were tested against human Cav2.2 (Homo sapiens, UniProt Q00975) (assay: Assessment of calcium channel activity using FLIPR (Ca2+ influx in IMR32 cells)). Conditions: IMR32 cells endogenously expressing human Cav2.2; 60 minute pre-incubation; 2 μM nifedipine; depolarized with 80 mM KCl, 5 mM CaCl2.
human Cav2.2, sequence (Q00975 whole entry): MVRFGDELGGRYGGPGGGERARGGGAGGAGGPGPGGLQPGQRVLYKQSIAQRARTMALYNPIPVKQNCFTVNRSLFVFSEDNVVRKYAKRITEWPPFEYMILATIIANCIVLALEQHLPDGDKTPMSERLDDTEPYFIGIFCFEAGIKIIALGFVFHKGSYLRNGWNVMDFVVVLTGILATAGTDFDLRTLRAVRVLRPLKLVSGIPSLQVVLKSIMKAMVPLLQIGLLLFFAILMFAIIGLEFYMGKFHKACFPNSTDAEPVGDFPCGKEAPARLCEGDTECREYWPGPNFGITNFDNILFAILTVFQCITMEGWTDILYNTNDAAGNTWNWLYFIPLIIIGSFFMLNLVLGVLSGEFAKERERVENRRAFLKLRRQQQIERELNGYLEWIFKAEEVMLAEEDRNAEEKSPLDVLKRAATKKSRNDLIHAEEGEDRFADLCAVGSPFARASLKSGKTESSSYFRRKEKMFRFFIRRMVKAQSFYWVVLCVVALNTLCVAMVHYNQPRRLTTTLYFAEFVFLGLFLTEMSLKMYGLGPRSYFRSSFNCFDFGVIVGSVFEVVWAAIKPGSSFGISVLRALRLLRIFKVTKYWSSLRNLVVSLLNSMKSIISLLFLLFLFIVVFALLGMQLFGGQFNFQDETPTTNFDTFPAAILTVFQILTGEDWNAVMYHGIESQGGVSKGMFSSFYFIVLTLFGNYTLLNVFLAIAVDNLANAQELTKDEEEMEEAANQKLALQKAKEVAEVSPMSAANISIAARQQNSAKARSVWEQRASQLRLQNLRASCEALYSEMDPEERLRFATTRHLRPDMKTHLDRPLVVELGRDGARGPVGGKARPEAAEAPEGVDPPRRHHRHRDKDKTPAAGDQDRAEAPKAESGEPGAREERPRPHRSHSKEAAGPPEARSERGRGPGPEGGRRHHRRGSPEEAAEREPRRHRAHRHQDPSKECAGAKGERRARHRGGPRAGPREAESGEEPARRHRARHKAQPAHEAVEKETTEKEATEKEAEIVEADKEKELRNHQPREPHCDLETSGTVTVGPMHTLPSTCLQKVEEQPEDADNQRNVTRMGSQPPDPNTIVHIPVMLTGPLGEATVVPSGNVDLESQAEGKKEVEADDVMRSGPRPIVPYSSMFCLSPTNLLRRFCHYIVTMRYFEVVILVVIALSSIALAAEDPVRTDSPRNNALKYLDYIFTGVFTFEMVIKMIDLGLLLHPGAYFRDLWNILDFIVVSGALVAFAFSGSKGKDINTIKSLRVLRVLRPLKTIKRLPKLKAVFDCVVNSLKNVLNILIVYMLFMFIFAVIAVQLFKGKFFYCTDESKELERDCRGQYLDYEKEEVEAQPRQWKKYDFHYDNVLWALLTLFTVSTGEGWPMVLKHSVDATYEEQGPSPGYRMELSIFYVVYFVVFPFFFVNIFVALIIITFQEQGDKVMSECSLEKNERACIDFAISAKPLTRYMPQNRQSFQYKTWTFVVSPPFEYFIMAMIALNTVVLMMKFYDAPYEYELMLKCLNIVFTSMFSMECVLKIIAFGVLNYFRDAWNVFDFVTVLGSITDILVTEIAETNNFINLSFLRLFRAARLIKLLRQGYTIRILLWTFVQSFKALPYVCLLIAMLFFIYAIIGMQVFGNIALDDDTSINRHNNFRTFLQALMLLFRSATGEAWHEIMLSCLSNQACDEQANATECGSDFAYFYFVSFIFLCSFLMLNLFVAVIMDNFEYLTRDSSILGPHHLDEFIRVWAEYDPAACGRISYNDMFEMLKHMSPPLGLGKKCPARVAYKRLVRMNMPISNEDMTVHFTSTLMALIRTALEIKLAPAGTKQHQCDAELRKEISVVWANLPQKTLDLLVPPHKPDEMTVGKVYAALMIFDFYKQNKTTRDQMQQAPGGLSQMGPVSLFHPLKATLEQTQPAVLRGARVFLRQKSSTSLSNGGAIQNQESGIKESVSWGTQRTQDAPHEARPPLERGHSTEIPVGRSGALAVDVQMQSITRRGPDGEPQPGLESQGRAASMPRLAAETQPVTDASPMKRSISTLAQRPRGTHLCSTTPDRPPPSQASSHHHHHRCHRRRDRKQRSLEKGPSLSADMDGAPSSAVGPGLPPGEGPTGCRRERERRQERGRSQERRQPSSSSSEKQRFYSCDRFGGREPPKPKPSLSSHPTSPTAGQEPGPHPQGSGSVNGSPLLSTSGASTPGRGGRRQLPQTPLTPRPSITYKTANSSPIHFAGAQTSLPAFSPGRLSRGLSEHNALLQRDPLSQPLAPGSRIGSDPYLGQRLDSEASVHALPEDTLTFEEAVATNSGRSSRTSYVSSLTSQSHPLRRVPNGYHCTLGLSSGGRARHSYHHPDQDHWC
human Cav2.2, sequence (P54289 25-951 partner limits assumed): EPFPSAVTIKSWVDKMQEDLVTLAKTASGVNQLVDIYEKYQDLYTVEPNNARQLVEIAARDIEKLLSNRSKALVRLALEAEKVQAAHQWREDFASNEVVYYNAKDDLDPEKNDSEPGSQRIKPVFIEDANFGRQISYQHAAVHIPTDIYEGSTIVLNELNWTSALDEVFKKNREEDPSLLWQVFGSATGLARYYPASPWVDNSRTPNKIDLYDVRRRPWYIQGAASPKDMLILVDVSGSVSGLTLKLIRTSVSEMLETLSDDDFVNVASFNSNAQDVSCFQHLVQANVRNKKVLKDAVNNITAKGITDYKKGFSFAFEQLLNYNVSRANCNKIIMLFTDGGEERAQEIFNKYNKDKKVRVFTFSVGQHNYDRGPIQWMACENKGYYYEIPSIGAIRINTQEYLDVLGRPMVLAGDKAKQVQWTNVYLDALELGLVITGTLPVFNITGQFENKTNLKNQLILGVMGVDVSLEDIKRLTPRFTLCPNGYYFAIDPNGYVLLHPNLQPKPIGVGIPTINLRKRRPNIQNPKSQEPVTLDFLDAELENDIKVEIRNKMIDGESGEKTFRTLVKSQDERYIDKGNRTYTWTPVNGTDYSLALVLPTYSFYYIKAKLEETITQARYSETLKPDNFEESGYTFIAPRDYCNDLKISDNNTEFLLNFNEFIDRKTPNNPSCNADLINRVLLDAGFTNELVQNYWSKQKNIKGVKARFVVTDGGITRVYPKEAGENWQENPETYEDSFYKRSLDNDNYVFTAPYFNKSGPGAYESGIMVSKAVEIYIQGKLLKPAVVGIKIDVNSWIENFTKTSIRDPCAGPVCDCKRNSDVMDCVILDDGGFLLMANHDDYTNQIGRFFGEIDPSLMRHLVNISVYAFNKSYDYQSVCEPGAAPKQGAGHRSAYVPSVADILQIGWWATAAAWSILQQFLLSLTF
human Cav2.2, sequence (P54289 952-1103 partner limits assumed): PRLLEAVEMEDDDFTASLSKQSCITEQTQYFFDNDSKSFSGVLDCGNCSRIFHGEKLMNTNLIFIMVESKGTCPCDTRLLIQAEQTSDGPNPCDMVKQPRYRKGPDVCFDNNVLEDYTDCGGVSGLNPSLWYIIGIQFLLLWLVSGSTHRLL
human Cav2.2, sequence (P54284 whole entry partner): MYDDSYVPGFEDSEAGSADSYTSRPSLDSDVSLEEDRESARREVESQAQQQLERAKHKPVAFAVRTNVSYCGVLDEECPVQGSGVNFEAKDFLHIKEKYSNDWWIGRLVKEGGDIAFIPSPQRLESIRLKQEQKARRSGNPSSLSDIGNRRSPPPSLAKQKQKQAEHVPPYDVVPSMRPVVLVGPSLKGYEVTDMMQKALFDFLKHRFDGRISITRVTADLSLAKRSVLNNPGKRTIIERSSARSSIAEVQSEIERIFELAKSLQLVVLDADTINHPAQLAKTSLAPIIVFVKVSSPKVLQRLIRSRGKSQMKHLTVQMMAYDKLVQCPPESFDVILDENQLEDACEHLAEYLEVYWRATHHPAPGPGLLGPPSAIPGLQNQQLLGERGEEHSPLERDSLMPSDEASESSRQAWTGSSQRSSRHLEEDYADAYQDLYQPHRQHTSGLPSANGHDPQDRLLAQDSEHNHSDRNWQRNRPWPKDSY
Format: cell-based
Experimental: (i) In Vitro Methods—Assessment of Calcium Channel Activity Using FLIPR:
The IMR32 cells were maintained in MEM media containing 10% (v/v) FBS, 1% (v/v) antibiotic/antimitotic, 1% (v/v) sodium pyruvate and 1% (v/v) MEM NEAA. Following dissociation in 0.05% (v/v) trypsin/EDTA, cells were seeded into black 1×96-well plates (Corning Cellbind) at a density of 1-1.2×10^5 cells/well and incubated in the maintenance media above for 48 hours at 37° C. […] After dye loading and a subsequent 60 minute pre-incubation with compounds (full log dilutions from 10 μM to 0.1 nM) in the presence of 1.3 mM CaCl2 and 2 μM nifedipine to block endogenous L-type channels, the external Ca^2+ concentration was increased to 5 mM CaCl2 and the cells concomitantly depolarized with 80 mM KCl to assay channel activity. To determine the IC50 values, the percent inhibition of the compound at each concentration was determined relative to the activity in the absence of inhibitor, and data was fitted using non-linear regression sigmoidal dose response curve analysis with GraphPad Prism®.
An IC50 of 2620 nM was found for `O=C(CN1CCC(c2ccccc2)(c2ccccc2)C1=O)N1CCC[C@H]2CN(C(c3ccccc3)c3ccccc3)C[C@H]21` [Example 50, 1-{2-[(4aS,7aS)-6-benzhydryloctahydro-1H-pyrrolo[3,4-b]pyridin-1-yl]-2-oxoethyl}-3,3-diphenylpyrrolidin-2-one] in this work. An IC50 of 2290 nM was found for `O=C(CN1CCC(c2ccccc2)(c2ccccc2)C1=O)N1CCC[C@@H]2CN(C(c3ccccc3)c3ccccc3)C[C@@H]21` [Example 51, 1-{2-[(4aR,7aR)-6-benzhydryloctahydro-1H-pyrrolo[3,4-b]pyridin-1-yl]-2-oxoethyl}-3,3-diphenylpyrrolidin-2-one] in this work. An IC50 of 1540 nM was found for `O=C(CN1CCC(c2ccccc2)(c2ccccc2)C1=O)N1CCC(NCC(c2ccccc2)c2ccccc2)CC1` [Example 52, 1-(2-{4-[(2,2-diphenylethyl)amino]piperidin-1-yl}-2-oxoethyl)-3,3-diphenylpyrrolidin-2-one] in this work. An IC50 of 4020 nM was found for `O=C(CN1CCC(c2ccccc2)(c2ccccc2)C1=O)N1CCN(c2ccc(Cl)cn2)CC1` [Example 53, 1-{2-[4-(5-chloropyridin-2-yl)piperazin-1-yl]-2-oxoethyl}-3,3-diphenylpyrrolidin-2-one] in this work. An IC50 of 2550 nM was found for `O=C(CN1CCC(c2ccccc2)(c2ccccc2)C1=O)N1CCN(c2ccc(F)cc2)CC1` [Example 54, 1-{2-[4-(4-fluorophenyl)piperazin-1-yl]-2-oxoethyl}-3,3-diphenylpyrrolidin-2-one] in this work. An IC50 of 2130 nM was found for `O=C(CN1CCC(c2ccccc2)(c2ccccc2)C1=O)N1CCc2ccc(C(F)(F)F)cc2C1` [Example 55, 1-{2-oxo-2-[7-(trifluoromethyl)-3,4-dihydroisoquinolin-2(1H)-yl]ethyl}-3,3-diphenylpyrrolidin-2-one] in this work. An IC50 of 2380 nM was found for `CC(CNC(=O)CN1CCC(c2ccc(F)cc2)(c2ccc(F)cc2)C1=O)(c1ccccc1)c1ccccc1` [Example 59, 2-[3,3-bis(4-fluorophenyl)-2-oxopyrrolidin-1-yl]-N-(2,2-diphenylpropyl)acetamide] in this work. An IC50 of 1010 nM was found for `O=C(CN1CCC(c2ccc(F)cc2)(c2ccc(F)cc2)C1=O)N1CCN(Cc2cccc(C(F)(F)F)c2)CC1` [Example 60, 3,3-bis(4-fluorophenyl)-1-(2-oxo-2-{4-[3-(trifluoromethyl)benzyl]piperazin-1-yl}ethyl)pyrrolidin-2-one] in this work. An IC50 of 1310 nM was found for `O=C(CN1CCC(c2ccc(F)cc2)(c2ccc(F)cc2)C1=O)N1CCC(c2ccccc2)(c2ccccc2)C1` [Example 61, 1-[2-(3,3-diphenylpyrrolidin-1-yl)-2-oxoethyl]-3,3-bis(4-fluorophenyl)pyrrolidin-2-one] in this work. An IC50 of 8710 nM was found for `O=C1N(Cc2nc(-c3ccc(C(F)(F)F)cc3)no2)CCC1(c1ccccc1)c1ccccc1` [Example 62, 3,3-diphenyl-1-({3-[4-(trifluoromethyl)phenyl]-1,2,4-oxadiazol-5-yl}methyl)pyrrolidin-2-one] in this work. An IC50 of 1650 nM was found for `COc1cc(CN2CCN(CCN3CCC(c4ccc(F)cc4)(c4ccc(F)cc4)C3=O)CC2)cc(OC)c1` [Example 63, 1-{2-[4-(3,5-dimethoxybenzyl)piperazin-1-yl]ethyl}-3,3-bis(4-fluorophenyl)pyrrolidin-2-one] in this work. An IC50 of 2090 nM was found for `O=C1CN(C(c2ccccc2)c2ccccc2)CCN1CCN1CCC(c2ccccc2)(c2ccccc2)C1=O` [Example 64, 4-benzhydryl-1-[2-(2-oxo-3,3-diphenylpyrrolidin-1-yl)ethyl]piperazin-2-one] in this work. An IC50 of 1040 nM was found for `CC1(C)C(=O)N(CCN2CCC(c3ccccc3)(c3ccccc3)C2=O)CCN1Cc1cccs1` [Example 65, 3,3-dimethyl-1-[2-(2-oxo-3,3-diphenylpyrrolidin-1-yl)ethyl]-4-(thien-2-ylmethyl)piperazin-2-one] in this work. An IC50 of 1830 nM was found for `O=C1CN(CCN2CCC(c3ccccc3)(c3ccccc3)C2=O)CCN1C(c1ccccc1)c1ccccc1` [Example 66, 1-benzhydryl-4-[2-(2-oxo-3,3-diphenylpyrrolidin-1-yl)ethyl]piperazin-2-one] in this work. An IC50 of 3440 nM was found for `O=C1N(CCN2CCc3ccc(C(F)(F)F)cc3C2)CCC1(c1ccccc1)c1ccccc1` [Example 67, 3,3-diphenyl-1-{2-[7-(trifluoromethyl)-3,4-dihydroisoquinolin-2(1H)-yl]ethyl}pyrrolidin-2-one] in this work. An IC50 of 6050 nM was found for `O=C(CN1CCCC(c2ccccc2)(c2ccccc2)C1=O)N1CCOC(c2ccccc2)(c2ccccc2)C1` [Example 69, 1-[2-(2,2-diphenylmorpholin-4-yl)-2-oxoethyl]-3,3-diphenylpiperidin-2-one] in this work. An IC50 of 7220 nM was found for `O=C(CN1CCCC(c2ccccc2)(c2ccccc2)C1=O)N1CCOC(c2ccccc2)C1` (stereo not drawn) [Example 70, 1-[2-oxo-2-(2-phenylmorpholin-4-yl)ethyl]-3,3-diphenylpiperidin-2-one] in this work. An IC50 of 3410 nM was found for `O=C(CN1CCCC(c2ccccc2)(c2ccccc2)C1=O)N1CCCC(c2ccccc2)(c2ccccc2)C1` [Example 71, 1-[2-(3,3-diphenylpiperidin-1-yl)-2-oxoethyl]-3,3-diphenylpiperidin-2-one] in this work. An IC50 of 3460 nM was found for `O=C(CN1CCCC(c2ccccc2)(c2ccccc2)C1=O)N1CCCC1c1ccc(F)cc1` (stereo not drawn) [Example 73, 1-{2-[2-(4-fluorophenyl)pyrrolidin-1-yl]-2-oxoethyl}-3,3-diphenylpiperidin-2-one] in this work. An IC50 of 2680 nM was found for `O=C(CN1CCCC(c2ccccc2)(c2ccccc2)C1=O)N1CCCCC1c1ccc(F)cc1` (stereo not drawn) [Example 74, 1-{2-[2-(4-fluorophenyl)piperidin-1-yl]-2-oxoethyl}-3,3-diphenylpiperidin-2-one] in this work. An IC50 of 4610 nM was found for `O=C(CN1CCCC(c2ccccc2)(c2ccccc2)C1=O)NC1CCOc2ccc(F)cc21` (stereo not drawn) [Example 75, N-(6-fluoro-3,4-dihydro-2H-chromen-4-yl)-2-(2-oxo-3,3-diphenylpiperidin-1-yl)acetamide] in this work. An IC50 of 2610 nM was found for `O=C(CN1CCCC(c2ccccc2)(c2ccccc2)C1=O)N1CCC(C(c2ccccc2)c2ccccc2)CC1` [Example 76, 1-[2-(4-benzhydrylpiperidin-1-yl)-2-oxoethyl]-3,3-diphenylpiperidin-2-one] in this work. An IC50 of 1710 nM was found for `CC(CNC(=O)CN1CCCC(c2ccccc2)(c2ccccc2)C1=O)(c1ccccc1)c1ccccc1` [Example 77, N-(2,2-diphenylpropyl)-2-(2-oxo-3,3-diphenylpiperidin-1-yl)acetamide] in this work. An IC50 of 1740 nM was found for `O=C(CN1CCCC(c2ccccc2)(c2ccccc2)C1=O)N1CCC(C(O)(c2ccccc2)c2ccccc2)CC1` [Example 78, 1-(2-{4-[hydroxy(diphenyl)methyl]piperidin-1-yl}-2-oxoethyl)-3,3-diphenylpiperidin-2-one] in this work. An IC50 of 1380 nM was found for `O=C(CN1CCCC(c2ccccc2)(c2ccccc2)C1=O)N1CCN(Cc2ccc(C(F)(F)F)cc2)CC1` [Example 80, 1-(2-oxo-2-{4-[4-(trifluoromethyl)benzyl]piperazin-1-yl}ethyl)-3,3-diphenylpiperidin-2-one] in this work. An IC50 of 1320 nM was found for `O=C(CN1CCCC(c2ccccc2)(c2ccccc2)C1=O)N1CCN(Cc2cccc(Cl)c2)CC1` [Example 81, 1-{2-[4-(3-chlorobenzyl)piperazin-1-yl]-2-oxoethyl}-3,3-diphenylpiperidin-2-one] in this work. An IC50 of 2360 nM was found for `O=C(CN1CCCC(c2ccccc2)(c2ccccc2)C1=O)N1CCN(C(c2ccc(F)cc2)c2ccc(F)cc2)CC1` [Example 82, 1-(2-{4-[bis(4-fluorophenyl)methyl]piperazin-1-yl}-2-oxoethyl)-3,3-diphenylpiperidin-2-one] in this work.
